Patent US12458021B2, “Microbiocidal derivatives” (SYNGENTA CROP PROTECTION AG, priority 2019, dated 2025)

Key:
[1] = tested on: Puccinia recondita f. sp. tritici; test: Puccinia recondita f. sp. tritici / wheat / leaf disc preventative (brown rust); assay type: in vivo; details: foliar, wheat leaf segments cv. Kanzler, inoculated 1 day after application, assessed 7-9 days after application, read-out: control of Puccinia recondita f. sp. tritici, preventative (percent disease control compared to untreated)
Experimental: Example B11: Puccinia recondita f. sp. tritici/Wheat/Leaf Disc Preventative (Brown Rust) Wheat leaf segments cv. Kanzler are placed on agar in multiwell plates (24-well format) and sprayed with the formulated test compound diluted in water. The leaf disks are inoculated with a spore suspension of the fungus 1 day after application. The inoculated leaf segments are incubated at 19° C. and 75% rh under a light regime of 12 h light/12 h darkness in a climate cabinet and the activity of a compound is assessed as percent disease control compared to untreated when an appropriate level of disease damage appears in untreated check leaf segments (7-9 days after application). […] […]-190.

[2] = tested on: Magnaporthe grisea (Pyricularia oryzae); test: whole plant or invertebrate; assay type: in vivo; details: foliar, read-out: control of Magnaporthe grisea (percent disease control compared to untreated)
[3] = tested on: Blumeria graminis f. sp. tritici (Erysiphe graminis f. sp. tritici); test: Blumeria graminis f. sp. tritici / wheat / leaf disc preventative (powdery mildew on wheat); assay type: in vivo; details: foliar, wheat leaf segments cv. Kanzler, inoculated 1 day after application, assessed 6-8 days after application, read-out: control of Blumeria graminis f. sp. tritici (percent disease control compared to untreated)
From the text: Example B4: Blumeria graminis f. sp. tritici (Erysiphe graminis f. sp. tritici)/Wheat/Leaf Disc Preventative (Powdery Mildew on Wheat) Wheat leaf segments cv. Kanzler are placed on agar in a multiwell plate (24-well format) and sprayed with the formulated test compound diluted in water. The leaf disks are inoculated by shaking powdery mildew infected plants above the test plates 1 day after application. […] […]-192.

[4] = tested on: Glomerella lagenarium (Colletotrichum lagenarium); test: Glomerella lagenarium (Colletotrichum lagenarium) / liquid culture (anthracnose); assay type: cell-based; details: Colletotrichum orbiculare, PDB potato dextrose broth, 24° C., 3-4 days after application, read-out: control of Glomerella lagenarium (inhibition of growth, photometric)
Procedure, shortened: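 Conidia from cryogenic storage suspended in potato dextrose broth and added to DMSO compound solution in plates. Incubated at 24° C; growth inhibition read photometrically 3-4 days after application.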

[5] = tested on: Mycosphaerella graminicola (Septoria tritici); test: Mycosphaerella graminicola (Septoria tritici) / liquid culture (Septoria blotch); assay type: cell-based; details: Zymoseptoria tritici, PDB potato dextrose broth, 24° C., 4-5 days after application, read-out: control of Mycosphaerella graminicola (inhibition of growth, photometric)
Procedure, shortened: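 Conidia from cryogenic storage were mixed into potato dextrose broth and added to test compound in DMSO. Plates were incubated at 24° C, and growth inhibition was read photometrically 4-5 days after application.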

[6] = tested on: Monographella nivalis (Microdochium nivale); test: Monographella nivalis (Microdochium nivale) / liquid culture (foot rot cereals); assay type: cell-based; details: PDB potato dextrose broth, 24° C., 4-5 days after application, read-out: control of Monographella nivalis (inhibition of growth, photometric)
Procedure, shortened: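 Cryostored M. nivalis conidia mixed into potato dextrose broth and added to 96-well plates holding test compound in DMSO. Incubated at 24° C; growth inhibition read photometrically 4-5 days after application.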

Alternaria solani = Alternaria solani / tomato / leaf disc (early blight); assay type: in vivo; details: foliar, tomato leaf disks cv. Baby, inoculated 2 days after application, assessed 5-7 days after application, read-out: control of Alternaria solani (percent disease control compared to untreated)
Experimental: Example B1: Alternaria solani/Tomato/Leaf Disc (Early Blight) Tomato leaf disks cv. Baby are placed on agar in multiwell plates (24-well format) and sprayed with the formulated test compound diluted in water. The leaf disks are inoculated with a spore suspension of the fungus 2 days after application. The inoculated leaf disks are incubated at 23° C./21° C. […] […]-185.

COc1ccc(N(C#N)c2cc(F)nc(F)c2)nc1C(=O)NC1CCC1(C)C (stereo not shown) [Compound P-21, 6-[cyano-(2,6-difluoro-4-pyridyl)amino]-N-(2,2-dimethylcyclobutyl)-3-methoxy-pyridine-2-carboxamide]
≥ 80%: pest or weed control at 200 ppm [1] | pest or weed control at 200 ppm [2] | pest or weed control at 200 ppm [3]

COc1ccc(Nc2cc(F)nc(F)c2)nc1C(=O)NCC(C)(C)C [Compound P-30, 6-[(2,6-difluoro-4-pyridyl)amino]-N-(2,2-dimethylpropyl)-3-methoxy-pyridine-2-carboxamide]
≥ 80%: pest or weed control at 200 ppm [1] | pest or weed control at 200 ppm [2] | pest or weed control at 200 ppm [3] | inhibition at 20 ppm [4] | inhibition at 20 ppm [5]

COc1ccc(Nc2cc(F)nc(F)c2)nc1C(=O)NC1CCc2cc(C(F)(F)F)ccc21 (stereo not shown) [Compound P-47, 6-[(2,6-difluoro-4-pyridyl)amino]-3-methoxy-N-[5-(trifluoromethyl)indan-1-yl]pyridine-2-carboxamide]
≥ 80%: pest or weed control at 200 ppm [1] | pest or weed control at 200 ppm [2] | inhibition at 20 ppm [4] | inhibition at 20 ppm [5] | inhibition at 20 ppm [6]

COc1ccc(Nc2cc(F)cc(F)c2)nc1C(=O)NCC1COc2ccccc21 (stereo not shown) [Compound P-60, 6-(3,5-difluoroanilino)-N-(2,3-dihydrobenzofuran-3-ylmethyl)-3-methoxy-pyridine-2-carboxamide]
≥ 80%: pest or weed control at 200 ppm [2] | pest or weed control at 200 ppm (Alternaria solani) | inhibition at 20 ppm [4] | inhibition at 20 ppm [5] | inhibition at 20 ppm [6]

COc1ccc(Nc2cc(F)cc(F)c2)nc1C(=O)NC1COC(C2CC2)C1 (stereo not shown) [Compound P-65, N-(5-cyclopropyltetrahydrofuran-3-yl)-6-(3,5-difluoroanilino)-3-methoxy-pyridine-2-carboxamide]
≥ 80%: pest or weed control at 200 ppm [2] | pest or weed control at 200 ppm (Alternaria solani) | pest or weed control at 200 ppm [3] | inhibition at 20 ppm [4] | inhibition at 20 ppm [5] | inhibition at 20 ppm [6]

COc1ccc(Nc2cc(F)cc(F)c2)nc1C(=O)NCc1c(Cl)cncc1Cl [Compound P-66, N-[(3,5-dichloro-4-pyridyl)methyl]-6-(3,5-difluoroanilino)-3-methoxy-pyridine-2-carboxamide]
≥ 80%: pest or weed control at 200 ppm [2] | pest or weed control at 200 ppm (Alternaria solani) | inhibition at 20 ppm [4] | inhibition at 20 ppm [5] | inhibition at 20 ppm [6]

COc1ccc(Nc2cc(F)cc(F)c2)nc1C(=O)NCC1(C)CCOC1 (stereo not shown) [Compound P-68, 6-(3,5-difluoroanilino)-3-methoxy-N-[(3-methyltetrahydrofuran-3-yl)methyl]pyridine-2-carboxamide]
≥ 80%: pest or weed control at 200 ppm [2] | pest or weed control at 200 ppm (Alternaria solani) | pest or weed control at 200 ppm [3] | inhibition at 20 ppm [4] | inhibition at 20 ppm [5] | inhibition at 20 ppm [6]

COc1ccc(Nc2cc(F)cc(F)c2)nc1C(=O)NC1CCS(=O)(=O)CC1 [Compound P-78, 6-(3,5-difluoroanilino)-N-(1,1-dioxothian-4-yl)-3-methoxy-pyridine-2-carboxamide]
≥ 80%: pest or weed control at 200 ppm (Alternaria solani)

COc1ccc(Nc2cnsc2)nc1C(=O)NCC1(C(F)(F)F)CC1 [Compound P-83, 6-(isothiazol-4-ylamino)-3-methoxy-N-[[1-(trifluoromethyl)cyclopropyl]methyl]pyridine-2-carboxamide]
≥ 80%: pest or weed control at 200 ppm (Alternaria solani) | pest or weed control at 200 ppm [3] | inhibition at 20 ppm [4] | inhibition at 20 ppm [5] | inhibition at 20 ppm [6]

C#CCOc1ccc(Nc2cc(F)cc(F)c2)nc1C(=O)NC1CCC1(C)C (stereo not shown) [Compound P-86, 6-(3,5-difluoroanilino)-N-(2,2-dimethylcyclobutyl)-3-prop-2-ynoxy-pyridine-2-carboxamide]
≥ 80%: pest or weed control at 200 ppm (Alternaria solani) | inhibition at 20 ppm [4] | inhibition at 20 ppm [6]

CC(C)Oc1ccc(Nc2cc(F)cc(F)c2)nc1C(=O)NC1CCC1(C)C (stereo not shown) [Compound P-87, 6-(3,5-difluoroanilino)-N-(2,2-dimethylcyclobutyl)-3-isopropoxy-pyridine-2-carboxamide]
≥ 80%: pest or weed control at 200 ppm [2] | pest or weed control at 200 ppm (Alternaria solani) | inhibition at 20 ppm [4] | inhibition at 20 ppm [6]

COc1ccc(Nc2cc(F)nc(F)c2)nc1C(=O)NC1(C2CCCCC2)CC1 [Compound P-88, N-(1-cyclohexylcyclopropyl)-6-[(2,6-difluoro-4-pyridyl)amino]-3-methoxy-pyridine-2-carboxamide]
≥ 80%: pest or weed control at 200 ppm [1] | pest or weed control at 200 ppm [2] | inhibition at 20 ppm [4]

COc1ccc(Nc2cncc(F)c2)nc1C(=O)NCC(C)(C)C [Compound P-105, N-(2,2-dimethylpropyl)-6-[(5-fluoro-3-pyridyl)amino]-3-methoxy-pyridine-2-carboxamide]
≥ 80%: pest or weed control at 200 ppm [1] | pest or weed control at 200 ppm [2] | pest or weed control at 200 ppm [3]

CC(C)(C)NC(=O)c1cccc(Nc2cc(F)nc(F)c2)n1 [Compound P-114, N-tert-butyl-6-[(2,6-difluoro-4-pyridyl)amino]pyridine-2-carboxamide]
≥ 80%: pest or weed control at 200 ppm [1] | pest or weed control at 200 ppm [3] | inhibition at 20 ppm [4] | inhibition at 20 ppm [5] | inhibition at 20 ppm [6]

COc1ccc(Nc2cc(F)cc(F)c2)[n+]([O-])c1C(=O)NC(C)(C)C [Compound P-117, N-tert-butyl-6-(3,5-difluoroanilino)-3-methoxy-1-oxido-pyridin-1-ium-2-carboxamide]
≥ 80%: pest or weed control at 200 ppm [1] | pest or weed control at 200 ppm [2] | pest or weed control at 200 ppm [3] | inhibition at 20 ppm [4] | inhibition at 20 ppm [5] | inhibition at 20 ppm [6]

COc1ccc(Nc2cc(Cl)cc(Cl)c2)nc1C(=O)NC(C)(C)C [Compound P-148, N-tert-butyl-6-(3,5-dichloroanilino)-3-methoxy-pyridine-2-carboxamide]
≥ 80%: pest or weed control at 200 ppm [1] | pest or weed control at 200 ppm [2] | pest or weed control at 200 ppm (Alternaria solani) | inhibition at 20 ppm [4] | inhibition at 20 ppm [5] | inhibition at 20 ppm [6]

COc1ccc(Nc2cc(F)cc(F)c2)nc1C(=O)NC1(c2cccc(Cl)n2)CCC1 [Compound P-177, N-[1-(6-chloro-2-pyridyl)cyclobutyl]-6-(3,5-difluoroanilino)-3-methoxy-pyridine-2-carboxamide]
≥ 80%: pest or weed control at 200 ppm [1] | pest or weed control at 200 ppm [2] | pest or weed control at 200 ppm [3] | inhibition at 20 ppm [4] | inhibition at 20 ppm [5] | inhibition at 20 ppm [6]

COc1ccc(Nc2cc(F)nc(F)c2)nc1C(=O)NC1(C(C)C)CCC1 [Compound P-181, 6-[(2,6-difluoro-4-pyridyl)amino]-N-(1-isopropylcyclobutyl)-3-methoxy-pyridine-2-carboxamide]
≥ 80%: pest or weed control at 200 ppm [1] | pest or weed control at 200 ppm [3] | inhibition at 20 ppm [5] | inhibition at 20 ppm [6]

CCC1(NC(=O)c2nc(Nc3cc(F)nc(F)c3)ccc2OC)CCC1 [Compound P-183, 6-[(2,6-difluoro-4-pyridyl)amino]-N-(1-ethylcyclobutyl)-3-methoxy-pyridine-2-carboxamide]
≥ 80%: pest or weed control at 200 ppm [1] | pest or weed control at 200 ppm [3] | inhibition at 20 ppm [5] | inhibition at 20 ppm [6]
